Assay results from patent US5919682A, “Overproduction of neuronal nitric oxide synthase” (Board of Regents, University of Texas System, priority 1995, dated 1999).
Where “and” joins values, the source holds several entries; their conditions need not be identical. Identical values can stand only once. Entries after “also recorded” stand apart in the source; their conditions may differ. Values belong to the molecule of their own block, whether it stands above or below them.

How the values were obtained:
nNOS = conditions: assumed value from McMillan and Masters, 1993, Wolff et al., read-out: Kd imidazole; cited from earlier work
E. coli-expressed nNOS [1] = molecular target: T1, E. coli-expressed nNOS (Rattus norvegicus, UniProt P29476); assay: Absolute absorbance spectrum perturbation of nNOS; assay type: binding; set-up: made in house; host or cells: E. coli BL21 co-transformed with pNOSpCW and pGroELS; conditions: imidazole 1 mM; arginine 2 μM
Description: Studies were performed as described in Example 2 using 3.2 μM nNOS.
(§1) Spectrophotometric methods. Absolute spectra and CO difference spectra were performed essentially as described by McMillan and Masters (1993) with the exception that all measurements were performed in buffer B and the CO difference spectra were obtained by reducing the protein and then bubbling the sample cuvette with CO. Substrate perturbation difference spectra were performed as described (McMillan and Masters, 1993), but in the presence of 1 mM imidazole to shift the entire population of nNOS to the low spin heme state. The molar protein concentration was determined based on heme content and Δε444-475 =75 mM^1 (Stuehr and Ikeda-Saito, 1992; McMillan and Masters, 1995). All spectral analyses were performed using a Shimadzu Model 2101 UV/visible dual-beam spectrophotometer.

[2] = Specific activity of nNOS (NO formation); assay type: biochemical
Description: (§2) Enzymatic activity determined by the rate of NO. formation. […] L-citrulline from [^3 H] […] For Km analysis, the concentration of [^3 H]

[3] = test system: nNOS isolated from rat brain; conditions: read-out: Km for L-arginine; reported by Bredt and Snyder (1990); cited from earlier work
E. coli-expressed nNOS [4] = molecular target: T1, E. coli-expressed nNOS; assay: Substrate perturbation difference spectrophotometry (spectral binding); set-up: made in house; host or cells: E. coli BL21 co-transformed with pNOSpCW and pGroELS; conditions: 1 mM imidazole present; assuming Kd imidazole 160 μM; read-out: spectral binding constant (KS)
Description: Studies were performed as described in Example 2 using 1.5 μM nNOS in the presence of 1 mM imidazole.
as §1
(FIG. 2B), using the following:
apparent KS =KS (1+[Imidazole]/Kd imidazole).

[5] = test system: human kidney 293 cell-purified nNOS; assay: Km analysis, nNOS from human kidney 293 cells; assay type: biochemical, rat; conditions: read-out: Km for L-arginine
Description: as §2
These values are in excellent agreement with each other and with the Km value of 2 μM for nNOS reported by Bredt and Snyder (1990).

E. coli-expressed nNOS [6] = molecular target: T1, E. coli-expressed nNOS; conditions: purified nnos, 2 min
Description: Enzymatic activity determined by the rate of NO. formation. The rate of nitric oxide formation was measured using both the hemoglobin capture assay (Kelm and Schrader, 1990), performed at 25° C. as described by Sheta, et al. (1994), and the method of Bredt and Snyder (1990), which monitors the formation of [^3 H] L-citrulline from [^3 H] […] Each reaction mixture, containing 0.5 mg of enzyme, was incubated at 25° C. for 2 minutes (over which time the reaction is linear). For Km analysis, the concentration of [^3 H]
Enzymatic activity of purified E. coli-expressed enzyme.

E. coli-expressed nNOS [7] = molecular target: T1, E. coli-expressed nNOS; assay: [3H]-NNA binding to purified E. coli-expressed nNOS by direct titration; set-up: made in house; host or cells: E. coli BL21 co-transformed with pNOSpCW and pGroELS
Description: Studies were performed as described in Example 4 using 10 pmole nNOS. Symbols are: circles, semi-purified E. coli-expressednNOS eluted from a 2'5'-ADP-Sepharose 4B column in the absence of BH4 during purification; triangles, purified E. coli-expressed nNOS purified in the presence of BH4 as described in Example 1; open symbols represent data from assays performed in the absence of additional BH4; filled symbols represent data from assays performed in the presence of 10 μM BH4.
The incubation was stopped by aspiration of the sample through the PVDF membrane. The wells were washed twice with 200 μl of 50 mM Tris, pH 7.6, air-dried for 10 minutes, 25 μl scintillation cocktail was added, and samples were counted.
Binding of N^ω -nitro-arginine to purified E. coli-expressed enzyme.

T1 sequence (P29476 whole entry): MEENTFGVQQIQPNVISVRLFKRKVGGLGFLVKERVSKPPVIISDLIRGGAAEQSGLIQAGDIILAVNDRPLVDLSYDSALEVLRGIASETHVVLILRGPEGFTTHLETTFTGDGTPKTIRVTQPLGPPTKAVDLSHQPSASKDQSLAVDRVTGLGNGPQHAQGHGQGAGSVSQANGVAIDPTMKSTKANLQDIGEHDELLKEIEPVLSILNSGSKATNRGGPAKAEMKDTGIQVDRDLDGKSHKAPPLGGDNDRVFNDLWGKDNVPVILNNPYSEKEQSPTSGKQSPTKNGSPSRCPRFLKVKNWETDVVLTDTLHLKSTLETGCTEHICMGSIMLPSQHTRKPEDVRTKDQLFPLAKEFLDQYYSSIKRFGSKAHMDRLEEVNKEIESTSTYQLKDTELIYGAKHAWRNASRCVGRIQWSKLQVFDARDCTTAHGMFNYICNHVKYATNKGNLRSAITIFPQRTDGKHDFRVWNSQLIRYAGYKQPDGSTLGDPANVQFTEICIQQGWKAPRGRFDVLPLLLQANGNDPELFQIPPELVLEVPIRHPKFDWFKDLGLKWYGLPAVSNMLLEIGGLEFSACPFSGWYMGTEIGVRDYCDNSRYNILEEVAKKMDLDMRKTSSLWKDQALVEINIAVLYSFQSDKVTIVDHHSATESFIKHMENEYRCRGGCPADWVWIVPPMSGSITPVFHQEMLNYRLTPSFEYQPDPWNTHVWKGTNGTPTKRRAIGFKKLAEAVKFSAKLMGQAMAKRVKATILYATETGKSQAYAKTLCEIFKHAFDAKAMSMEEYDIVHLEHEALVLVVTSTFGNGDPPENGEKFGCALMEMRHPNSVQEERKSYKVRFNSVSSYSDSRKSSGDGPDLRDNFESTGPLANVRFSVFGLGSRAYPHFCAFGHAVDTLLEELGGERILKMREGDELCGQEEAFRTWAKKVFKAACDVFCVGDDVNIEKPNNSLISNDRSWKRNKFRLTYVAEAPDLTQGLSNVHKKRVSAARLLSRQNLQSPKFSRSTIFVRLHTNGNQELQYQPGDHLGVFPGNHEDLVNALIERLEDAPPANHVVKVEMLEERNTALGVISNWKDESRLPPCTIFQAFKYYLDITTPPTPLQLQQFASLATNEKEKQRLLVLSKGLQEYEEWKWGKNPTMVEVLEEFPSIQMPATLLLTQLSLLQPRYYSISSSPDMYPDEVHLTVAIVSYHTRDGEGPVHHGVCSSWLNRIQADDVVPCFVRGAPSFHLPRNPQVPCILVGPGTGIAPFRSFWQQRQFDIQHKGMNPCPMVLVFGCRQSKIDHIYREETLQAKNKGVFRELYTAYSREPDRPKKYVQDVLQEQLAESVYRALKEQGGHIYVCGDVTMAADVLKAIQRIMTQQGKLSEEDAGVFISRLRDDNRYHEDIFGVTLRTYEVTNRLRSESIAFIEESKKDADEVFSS

Molecule: c1c[nH]cn1 [imidazole]
Kd (nNOS): 160000 nM
shift of maximum heme absorbance at 400 nm (E. coli-expressed nNOS [1]): low spin form (peak at 428 nm)

Molecule: nNOS from JM109: nNOS co-expressed with groEL and groES in E. coli JM109, heavily proteolyzed upon cell lysis
activity relative to nNOS purified from 293 cells ([2]; nNOS from E. coli JM109 co-expressing groEL and groES, heavily proteolyzed): 1%

Molecule: nNOS: rat neuronal NOS overexpressed in E. coli BL21 with chaperonins groEL and groES
specific activity compared with mammalian (kidney 293) cell-expressed nNOS [2]: equal to or exceeding the activity of kidney 293 cell-derived enzyme; also recorded: at least as high as that of kidney 293 cell-expressed enzyme; also recorded: at least equal to or greater than the mammalian cell-expressed nNOS
specific activity / turnover ([2]; E. coli-expressed nNOS, both hemoglobin capture and citrulline assays): 450 nmol/min/mg

Molecule: N=C(N)NCCC[C@H](N)C(=O)O [L-arginine]
Km [3]: 2 µM and ~2 µM
shift of maximum heme absorbance at 400 nm (E. coli-expressed nNOS [1]): completely to the high spin form (peak at 395 nm)
Kd (E. coli-expressed nNOS [4]): ~717 nM and 717 nM
Km [5]: 1.9 µM and ~2 µM

stimulation of turnover by BH4, fraction 1 (E. coli-expressed nNOS [6]): 2.7 fold
stimulation of turnover by BH4, fraction 2 (E. coli-expressed nNOS [6]): 2.3 fold
Molecule: C[C@H](O)[C@H](O)[C@H]1CNc2nc(N)[nH]c(=O)c2N1 [BH4, (6R)-5, 6, 7, 8 tetrahydro-L-biopterin]

Bmax (E. coli-expressed nNOS [7]; Fraction 1, (+) BH4): 0.54 pmol NNA/pmol nNOS
Bmax (E. coli-expressed nNOS [7]; Fraction 1, (-) BH4): 0.078 pmol NNA/pmol nNOS
Bmax (E. coli-expressed nNOS [7]; Fraction 2, (+) BH4): 0.69 pmol NNA/pmol nNOS
Bmax (E. coli-expressed nNOS [7]; Fraction 2, (-) BH4): 0.67 pmol NNA/pmol nNOS
Molecule: N=C(NCCC[C@H](N)C(=O)O)N[N+](=O)[O-] [NNA, N^ω -nitro-L-arginine]
binding of NNA to nNOS fraction 1 (E. coli-expressed nNOS [7]; fraction 1 (pre-BH4)): binds significantly to E. coli-expressed nNOS fraction 1 only in the presence of added BH4
binding of NNA to nNOS fraction 2 (E. coli-expressed nNOS [7]; fraction 2 (65% BH4-saturated)): equally well in the presence or absence of added BH4
